O=c1[nH]cc(F)c(=O)[nH]1
solubility (mole fraction)
Settings | 293.15 K | 298.15 K | 303.15 K | 308.15 K | 313.15 K | 318.15 K | 323.15 K
in ethanol | 0.00246 | 0.00277 | 0.00307 | 0.0034 | 0.00382 | 0.00411 | 0.00455
in water | 0.00155 | 0.00176 | 0.00195 | 0.00214 | 0.00241 | 0.00278 | 0.00312

Source: BigSolDB 2.1
